The source of these data is patent US8710065B2, “Tricyclic inhibitors of kinases” (AbbVie Inc., priority 2011, dated 2014).

Each structure is given as a SMILES string.

T1 sequence (P30291 whole entry): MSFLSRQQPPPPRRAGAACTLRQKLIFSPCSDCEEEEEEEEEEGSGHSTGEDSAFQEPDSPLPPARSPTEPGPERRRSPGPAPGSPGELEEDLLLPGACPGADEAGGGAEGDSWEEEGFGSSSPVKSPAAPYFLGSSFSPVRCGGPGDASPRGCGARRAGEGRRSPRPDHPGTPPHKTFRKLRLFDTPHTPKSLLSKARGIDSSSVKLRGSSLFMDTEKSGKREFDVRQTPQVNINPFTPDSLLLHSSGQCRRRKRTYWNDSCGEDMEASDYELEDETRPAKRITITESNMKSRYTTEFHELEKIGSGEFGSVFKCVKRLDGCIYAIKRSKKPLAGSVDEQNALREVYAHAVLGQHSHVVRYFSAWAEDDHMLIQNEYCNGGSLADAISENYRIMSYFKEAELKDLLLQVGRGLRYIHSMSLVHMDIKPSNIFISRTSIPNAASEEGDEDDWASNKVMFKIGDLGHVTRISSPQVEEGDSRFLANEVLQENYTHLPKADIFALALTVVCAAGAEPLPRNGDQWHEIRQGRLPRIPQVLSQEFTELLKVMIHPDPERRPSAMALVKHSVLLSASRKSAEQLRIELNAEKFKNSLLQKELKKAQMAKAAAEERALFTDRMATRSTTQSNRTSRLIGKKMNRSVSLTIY

This test concerns the target T1, GST-tagged-Wee1 kinase (Homo sapiens, UniProt P30291).
T1 construct: purchased Carnabio (Carna Biosciences) 05-177
The test is described as follows: Wee1 time-resolved fluorescence equilibrium binding assay (displacement of Oregon Green-labeled ATP-competitive kinase probe). Particulars: read-out: Wee-1 inhibition (Ki). In a few lines: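 Time-resolved fluorescence equilibrium binding with GST-Wee1, measuring displacement of a rapidly reversible Oregon Green-labelled ATP-competitive probe by competitive inhibitors; values reported as Ki.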
Usually Ki stands for the dissociation constant of the complex between target and ligand, obtained from inhibition or displacement. With `CC(C)N1CCN(c2ccc(Nc3ncc4c(=O)n(-c5c(Cl)cccc5Cl)c5nccn5c4n3)cc2)CC1` [Example 115, 6-(2,6-dichlorophenyl)-2-({4-[4-(propan-2-yl)piperazin-1-yl]phenyl}amino)imidazo[1,2-a]pyrimido[5,4-e]pyrimidin-5(6H)-one], the Ki was below 10 nM. For `O=c1c2cnc(Nc3ccc(N4CCN5CCCC5C4)cc3)nc2n2ccnc2n1-c1c(Cl)cccc1Cl` (stereo not shown) [Example 116, 6-(2,6-dichlorophenyl)-2-{[4-(hexahydropyrrolo[1,2-a]pyrazin-2(1H)-yl)phenyl]amino}imidazo[1,2-a]pyrimido[5,4-e]pyrimidin-5(6H)-one] the value was below 10 nM. The figure for `CCC(CC)CN1Cc2cc(Nc3ncc4c(=O)n(-c5ccccc5Cl)c5nccn5c4n3)ccc2C(C)(C)C1` [Example 117, 6-(2-chlorophenyl)-2-{[2-(2-ethylbutyl)-4,4-dimethyl-1,2,3,4-tetrahydroisoquinolin-7-yl]amino}imidazo[1,2-a]pyrimido[5,4-e]pyrimidin-5(6H)-one] is 10 to 100 nM.

`CN1CCN(CCc2ccc(Nc3ncc4c(=O)n(-c5c(Cl)cccc5Cl)c5nccn5c4n3)cc2)CC1` [Example 118, 6-(2,6-dichlorophenyl)-2-({4-[2-(4-methylpiperazin-1-yl)ethyl]phenyl}amino)imidazo[1,2-a]pyrimido[5,4-e]pyrimidin-5(6H)-one]: the Ki is below 10 nM.

Consider `CN(C)CCN1CCc2cc(Nc3ncc4c(=O)n(-c5c(Cl)cccc5Cl)c5nccn5c4n3)ccc21` [Example 119, 6-(2,6-dichlorophenyl)-2-({1-[2-(dimethylamino)ethyl]-2,3-dihydro-1H-indol-5-yl}amino)imidazo[1,2-a]pyrimido[5,4-e]pyrimidin-5(6H)-one], for which the Ki was below 10 nM. In the case of `CCc1cc(Nc2ncc3c(=O)n(-c4c(Cl)cccc4Cl)c4nccn4c3n2)ccc1N1CCN(C)CC1` [Example 120, 6-(2,6-dichlorophenyl)-2-{[3-ethyl-4-(4-methylpiperazin-1-yl)phenyl]amino}imidazo[1,2-a]pyrimido[5,4-e]pyrimidin-5(6H)-one], the Ki is below 10 nM. The figure for `CN1CCCN(c2ccc(Nc3ncc4c(=O)n(-c5c(Cl)cccc5Cl)c5nccn5c4n3)cc2CO)CC1` [Example 121, 6-(2,6-dichlorophenyl)-2-{[3-(hydroxymethyl)-4-(4-methyl-1,4-diazepan-1-yl)phenyl]amino}imidazo[1,2-a]pyrimido[5,4-e]pyrimidin-5(6H)-one] is below 10 nM. For `O=c1c2cnc(Nc3ccc4c(c3)CCNC4)nc2n2ccnc2n1-c1c(Cl)cccc1Cl` [Example 122, 6-(2,6-dichlorophenyl)-2-(1,2,3,4-tetrahydroisoquinolin-6-ylamino)imidazo[1,2-a]pyrimido[5,4-e]pyrimidin-5(6H)-one] the value was below 10 nM. With `CN1CCN(c2ccc(Nc3ncc4c(=O)n(-c5c(Cl)cc(F)cc5Cl)c5nccn5c4n3)cc2)CC1` [Example 123, 6-(2,6-dichloro-4-fluorophenyl)-2-{[4-(4-methylpiperazin-1-yl)phenyl]amino}imidazo[1,2-a]pyrimido[5,4-e]pyrimidin-5(6H)-one], the inhibition constant Ki was below 10 nM.

In the case of `Cc1cc(Nc2ncc3c(=O)n(-c4c(Cl)cc(F)cc4Cl)c4nccn4c3n2)ccc1N1CCCN(C)CC1` [Example 124, 6-(2,6-dichloro-4-fluorophenyl)-2-{[3-methyl-4-(4-methyl-1,4-diazepan-1-yl)phenyl]amino}imidazo[1,2-a]pyrimido[5,4-e]pyrimidin-5(6H)-one], the Ki was below 10 nM. Regarding `CN1Cc2cc(Nc3ncc4c(=O)n(-c5c(Cl)cc(F)cc5Cl)c5nccn5c4n3)ccc2C2(CC2)C1` [Example 125, 6-(2,6-dichloro-4-fluorophenyl)-2-[(2′-methyl-2′,3′-dihydro-1′H-spiro[cyclopropane-1,4′-isoquinolin]-7′-yl)amino]imidazo[1,2-a]pyrimido[5,4-e]pyrimidin-5(6H)-one], the Ki was below 10 nM. For the compound `CN(C)C1Cc2ccc(Nc3ncc4c(=O)n(-c5c(Cl)cc(F)cc5Cl)c5nccn5c4n3)cc2C1` (stereo not shown) [Example 126, 6-(2,6-dichloro-4-fluorophenyl)-2-{[2-(dimethylamino)-2,3-dihydro-1H-inden-5-yl]amino}imidazo[1,2-a]pyrimido[5,4-e]pyrimidin-5(6H)-one], the Ki was below 10 nM.

Regarding `CN1CCN(Cc2ccc(Nc3ncc4c(=O)n(-c5c(Cl)cccc5Cl)c5nccn5c4n3)cc2)CC1` [Example 127, 6-(2,6-dichlorophenyl)-2-({4-[(4-methylpiperazin-1-yl)methyl]phenyl}amino)imidazo[1,2-a]pyrimido[5,4-e]pyrimidin-5(6H)-one], the Ki is below 10 nM. On to `C[C@@H]1CN(c2ccc(Nc3ncc4c(=O)n(-c5c(Cl)cccc5Cl)c5nccn5c4n3)cc2F)C[C@H](C)N1` [Example 128, 6-(2,6-dichlorophenyl)-2-({4-[(3R,5S)-3,5-dimethylpiperazin-1-yl]-3-fluorophenyl}amino)imidazo[1,2-a]pyrimido[5,4-e]pyrimidin-5(6H)-one], for which the Ki is below 10 nM. The figure for `O=c1c2cnc(Nc3cc(F)c(N4CCNCC4)c(F)c3)nc2n2ccnc2n1-c1c(Cl)cccc1Cl` [Example 129, 6-(2,6-dichlorophenyl)-2-{[3,5-difluoro-4-(piperazin-1-yl)phenyl]amino}imidazo[1,2-a]pyrimido[5,4-e]pyrimidin-5(6H)-one] is below 10 nM; for `CC1(C)CN(CC2CC2)Cc2cc(Nc3ncc4c(=O)n(-c5ccccc5Cl)c5nccn5c4n3)ccc21` [Example 130, 6-(2-chlorophenyl)-2-{[2-(cyclopropylmethyl)-4,4-dimethyl-1,2,3,4-tetrahydroisoquinolin-7-yl]amino}imidazo[1,2-a]pyrimido[5,4-e]pyrimidin-5(6H)-one] it is below 10 nM. For the compound `CC1(C)CN(Cc2cccnc2)Cc2cc(Nc3ncc4c(=O)n(-c5ccccc5Cl)c5nccn5c4n3)ccc21` [Example 131, 6-(2-chlorophenyl)-2-{[4,4-dimethyl-2-(pyridin-3-ylmethyl)-1,2,3,4-tetrahydroisoquinolin-7-yl]amino}imidazo[1,2-a]pyrimido[5,4-e]pyrimidin-5(6H)-one], the Ki is below 10 nM. For `CC1(C)CN(Cc2ccsc2)Cc2cc(Nc3ncc4c(=O)n(-c5ccccc5Cl)c5nccn5c4n3)ccc21` [Example 132, 6-(2-chlorophenyl)-2-{[4,4-dimethyl-2-(thiophen-3-ylmethyl)-1,2,3,4-tetrahydroisoquinolin-7-yl]amino}imidazo[1,2-a]pyrimido[5,4-e]pyrimidin-5(6H)-one] the value was below 10 nM.

`CN1CCc2cc(Nc3ncc4c(=O)n(-c5ccccc5Cl)c5nccn5c4n3)ccc2C1(C)C` [Example 133, 6-(2-chlorophenyl)-2-[(1,1,2-trimethyl-1,2,3,4-tetrahydroisoquinolin-6-yl)amino]imidazo[1,2-a]pyrimido[5,4-e]pyrimidin-5(6H)-one]: the Ki was below 10 nM.

Consider `O=c1c2cnc(Nc3ccc(C4CCCN4)cc3)nc2n2ccnc2n1-c1c(Cl)cccc1Cl` (stereo not shown) [Example 134, 6-(2,6-dichlorophenyl)-2-{[4-(pyrrolidin-2-yl)phenyl]amino}imidazo[1,2-a]pyrimido[5,4-e]pyrimidin-5(6H)-one], for which the Ki is below 10 nM. The figure for `O=c1c2cnc(Nc3ccc(C4CCCCN4)cc3)nc2n2ccnc2n1-c1c(Cl)cccc1Cl` (stereo not shown) [Example 135, 6-(2,6-dichlorophenyl)-2-{[4-(piperidin-2-yl)phenyl]amino}imidazo[1,2-a]pyrimido[5,4-e]pyrimidin-5(6H)-one] is below 10 nM; for `CN1CCN(c2ccc(Nc3ncc4c(=O)n(-c5c(Cl)cccc5Cl)c5nccn5c4n3)cc2Cl)CC1` [Example 136, 2-{[3-chloro-4-(4-methylpiperazin-1-yl)phenyl]amino}-6-(2,6-dichlorophenyl)imidazo[1,2-a]pyrimido[5,4-e]pyrimidin-5(6H)-one] it is below 10 nM. As to `COc1cc(Nc2ncc3c(=O)n(-c4c(Cl)cccc4Cl)c4nccn4c3n2)ccc1N1CCN(C(C)C)CC1` [Example 137, 6-(2,6-dichlorophenyl)-2-({3-methoxy-4-[4-(propan-2-yl)piperazin-1-yl]phenyl}amino)imidazo[1,2-a]pyrimido[5,4-e]pyrimidin-5(6H)-one], the Ki is below 10 nM.

As to `O=c1c2cnc(Nc3ccc(N4CCC(O)CC4)cc3)nc2n2ccnc2n1-c1ccccc1Cl` [Example 138, 6-(2-chlorophenyl)-2-{[4-(4-hydroxypiperidin-1-yl)phenyl]amino}imidazo[1,2-a]pyrimido[5,4-e]pyrimidin-5(6H)-one], the Ki is below 10 nM. For `CN(C)C1Cc2ccc(Nc3ncc4c(=O)n(-c5c(F)cccc5Cl)c5nccn5c4n3)cc2C1` (stereo not shown) [Example 139, 6-(2-chloro-6-fluorophenyl)-2-{[2-(dimethylamino)-2,3-dihydro-1H-inden-5-yl]amino}imidazo[1,2-a]pyrimido[5,4-e]pyrimidin-5(6H)-one] the value was below 10 nM. As to `CN1Cc2cc(Nc3ncc4c(=O)n(-c5c(F)cccc5Cl)c5nccn5c4n3)ccc2C2(CC2)C1` [Example 140, 6-(2-chloro-6-fluorophenyl)-2-[(2′-methyl-2′,3′-dihydro-1′H-spiro[cyclopropane-1,4′-isoquinolin]-7′-yl)amino]imidazo[1,2-a]pyrimido[5,4-e]pyrimidin-5(6H)-one], the Ki is below 10 nM. Turning to `Cc1cc(Nc2ncc3c(=O)n(-c4c(F)cccc4Cl)c4nccn4c3n2)ccc1N1CCCNCC1` [Example 141, 6-(2-chloro-6-fluorophenyl)-2-{[4-(1,4-diazepan-1-yl)-3-methylphenyl]amino}imidazo[1,2-a]pyrimido[5,4-e]pyrimidin-5(6H)-one], the Ki is below 10 nM. For `CC(C)n1c(=O)c2cnc(Nc3ccc4c(c3)CN(C)CC43CC3)nc2n2ccnc12` [Example 142, 2-[(2′-methyl-2′,3′-dihydro-1′H-spiro[cyclopropane-1,4′-isoquinolin]-7′-yl)amino]-6-(propan-2-yl)imidazo[1,2-a]pyrimido[5,4-e]pyrimidin-5(6H)-one], the Ki fell in the range of 10 to 100 nM.
